Results taken from paper PMC6104039 (Nature Communications, 2018).
Where two headings read alike, the source gives them in different places.

Columns and labels:
Format in all cases: biochemical
CerS1 = biological target: T1, CerS1 (Homo sapiens, UniProt P27544); assay: Ceramide synthase assay, HPLC-based with fluorescent NBD-dihydrosphingosine, C18:0-CoA; extracts of HEK293 cells expressing human CerS1; parameters: host or cells: HEK293
T1 sequence (P27544 1-350): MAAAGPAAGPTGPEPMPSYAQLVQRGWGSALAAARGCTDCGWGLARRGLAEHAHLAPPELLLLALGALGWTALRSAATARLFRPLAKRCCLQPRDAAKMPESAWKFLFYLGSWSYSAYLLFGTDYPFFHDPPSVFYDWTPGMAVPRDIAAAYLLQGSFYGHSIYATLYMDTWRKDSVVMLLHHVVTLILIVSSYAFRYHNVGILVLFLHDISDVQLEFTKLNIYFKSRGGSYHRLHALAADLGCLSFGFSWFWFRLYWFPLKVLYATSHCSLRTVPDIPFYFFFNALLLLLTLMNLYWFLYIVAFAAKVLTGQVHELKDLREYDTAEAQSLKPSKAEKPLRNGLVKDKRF
Method: (§1) Ceramide synthase assays were carried out using an HPLC-based assay with a fluorescent NBD-dihydrosphingosine substrate. All cell lines used for these assays were originally sourced from ATCC. […] Cells were sonicated in a Diagenode Bioruptor sonicating bath for 5 min, after which cell extracts were cleared by centrifugation at 800 × g for 10 min. Protein concentration in the supernatant was assayed using the bicinchoninic acid (BCA) assay, and the supernatant stored at −80 °C. COS cells were infected with lentiviral constructs expressing murine CerS1, 2, or 5, then homogenised as described above.
(§2) The reaction buffer consisted of 20 mM Hepes pH 7.4, 25 mM KCl, 2 mM MgCl2, 0.5 mM dithiothreitol, 0.1% fatty acid free BSA, 10 μM NBD-dihydrosphingosine and 50 μM fatty acid free BSA. C18:0-CoA was used as the fatty acyl substrate for CerS1 and CerS4; C24:1-CoA for CerS2; and C16:0-CoA for CerS5 and CerS6. All reactions were run in triplicate. Test inhibitors were added, after which reactions were started with the addition of 2.5–25 μg lysate protein (optimised depending on the particular CerS isoform being assayed). […] The reaction mixture was transferred to a glass HPLC vial with 300 μL fused glass insert (Thermo Fisher Scientific) and NBD-dihydroceramide reaction products were analysed on a Thermo Scientific Surveyor HPLC connected to a Shimadzu RF-10AXL fluorescent detector (set to gain of 3). […] The gradient started at 20:80 A/B, increasing to 5:95 A/B over 2 min, then to 100% B over 6 min. The gradient was then held at 100% B for 2 min, before re-equilibration to 20:80 A/B for a further 2 min. Peak areas were integrated using Xcalibur software (Thermo Fisher Scientific).

murine CerS5 = biological target: T2, murine CerS5 (Mus musculus, UniProt Q9D6K9); assay: Ceramide synthase assay, NBD-dihydrosphingosine, C16:0-CoA; COS cells expressing murine CerS5; details: inhibitor range 10 nM–100 μM; read-out: IC50 mCerS5
T2 construct: expressed in transfected cells; host or cells: COS cells (lentiviral infection)
T2 sequence (Q9D6K9 1-414): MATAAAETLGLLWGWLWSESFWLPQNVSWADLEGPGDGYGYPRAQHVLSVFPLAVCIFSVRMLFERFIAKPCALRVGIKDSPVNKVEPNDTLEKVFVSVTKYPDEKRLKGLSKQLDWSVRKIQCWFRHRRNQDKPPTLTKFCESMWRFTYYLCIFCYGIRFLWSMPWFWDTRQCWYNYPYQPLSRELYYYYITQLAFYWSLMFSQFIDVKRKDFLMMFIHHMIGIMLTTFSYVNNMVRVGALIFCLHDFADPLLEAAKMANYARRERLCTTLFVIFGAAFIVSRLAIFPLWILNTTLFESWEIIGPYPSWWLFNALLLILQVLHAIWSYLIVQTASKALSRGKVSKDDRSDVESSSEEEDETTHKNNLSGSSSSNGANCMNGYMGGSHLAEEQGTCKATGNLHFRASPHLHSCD
Method: Ceramide synthase assays were carried out using an HPLC-based assay with a fluorescent NBD-dihydrosphingosine substrate. All cell lines used for these assays were originally sourced from ATCC. […] Human CerS expression plasmids (pCMV6 plasmids from Origene) were transfected using FuGene-6 transfection reagent, and cells were harvested 24 h after transfection in 20 mM Hepes pH 7.4, 10 mM KCl, 1 mM dithiothreitol, 3 mM β-glycerophosphate, and EDTA-free complete protease inhibitor cocktail (Roche). Cells were sonicated in a Diagenode Bioruptor sonicating bath for 5 min, after which cell extracts were cleared by centrifugation at 800 × g for 10 min. Protein concentration in the supernatant was assayed using the bicinchoninic acid (BCA) assay, and the supernatant stored at −80 °C. COS cells were infected with lentiviral constructs expressing murine CerS1, 2, or 5, then homogenised as described above.
The reaction buffer consisted of 20 mM Hepes pH 7.4, 25 mM KCl, 2 mM MgCl2, 0.5 mM dithiothreitol, 0.1% fatty acid free BSA, 10 μM NBD-dihydrosphingosine and 50 μM fatty acid free BSA. C18:0-CoA was used as the fatty acyl substrate for CerS1 and CerS4; C24:1-CoA for CerS2; and C16:0-CoA for CerS5 and CerS6. All reactions were run in triplicate. Test inhibitors were added, after which reactions were started with the addition of 2.5–25 μg lysate protein (optimised depending on the particular CerS isoform being assayed). Assays were run for 30 min at 37 °C, and stopped with the addition of 200 μL methanol. The reaction mixture was transferred to a glass HPLC vial with 300 μL fused glass insert (Thermo Fisher Scientific) and NBD-dihydroceramide reaction products were analysed on a Thermo Scientific Surveyor HPLC connected to a Shimadzu RF-10AXL fluorescent detector (set to gain of 3). […] Data was acquired over a 12 min chromatography run using: solvent A, 0.2% formic acid, 2 mM ammonium formate in water; solvent B, 0.2% formic acid, 1 mM ammonium formate in methanol. The gradient started at 20:80 A/B, increasing to 5:95 A/B over 2 min, then to 100% B over 6 min. The gradient was then held at 100% B for 2 min, before re-equilibration to 20:80 A/B for a further 2 min. Peak areas were integrated using Xcalibur software (Thermo Fisher Scientific).

human CerS2 = biological target: T3, human CerS2 (Homo sapiens, UniProt Q96G23); assay: Ceramide synthase assay, NBD-dihydrosphingosine, C24:1-CoA; HEK293 cells expressing human CerS2; details: inhibitor range 10 nM–100 μM; read-out: IC50 hCerS2
T3 sequence (Q96G23 1-380): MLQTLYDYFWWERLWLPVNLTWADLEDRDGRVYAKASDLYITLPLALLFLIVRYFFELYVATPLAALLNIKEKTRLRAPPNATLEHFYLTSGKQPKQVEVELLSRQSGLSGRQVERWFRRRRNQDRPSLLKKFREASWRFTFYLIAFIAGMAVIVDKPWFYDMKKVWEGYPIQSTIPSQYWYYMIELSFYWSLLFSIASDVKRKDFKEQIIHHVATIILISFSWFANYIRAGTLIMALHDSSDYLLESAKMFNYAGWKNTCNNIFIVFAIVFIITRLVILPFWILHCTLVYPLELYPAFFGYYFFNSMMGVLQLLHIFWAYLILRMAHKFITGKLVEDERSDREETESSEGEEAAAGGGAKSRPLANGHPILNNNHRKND
Method: as §1, §2

[1] = inhibitor range 10 nM–100 μM, read-out: IC50 hCerS1

SMILES	IC50, all CerS isoforms (CerS1; all CerS isoforms, in words)	IC50 (CerS1; [1]) [µM]	IC50 (murine CerS5) [µM]	IC50 (human CerS2) [µM]	IC50 (CerS1; read-out: IC50 for inhibition of CerS1) [µM]
CCCC[C@@H](C)[C@@H](OC(=O)C[C@@H](CC(=O)O)C(=O)O)[C@H](C[C@@H](C)C[C@H](O)CCCC[C@@H](O)C[C@H](O)[C@H](C)N)OC(=O)C[C@@H](CC(=O)O)C(=O)O [FB1, reference compound]	sub-micromolar	0.22 ± 0.05	0.5 ± 0.05	0.15 ± 0.08	
C[C@@](N)(CO)CCc1ccc(OCc2ccc(Cl)c(Cl)c2)cc1 [P053, (S)-2-amino-4-(4-(3,4-dichlorobenzyloxy)phenyl)-2-methylbutan-1-ol]		0.54 ± 0.06	7.2 ± 0.1	28.6 ± 0.15	0.5
C[C@@](N)(CO)CCc1ccc(OCc2ccccc2)cc1 [G024, (2S)-2-amino-4-(4′-benzyloxyphenyl)-2-methyl-1-butanol]		6 ± 0.1	24.3 ± 0.22	14.5 ± 0.09	
CCCCCCCCc1ccc(CCC(N)(CO)CO)cc1 [FTY720, reference compound]			15 ± 0.07	19.1 ± 0.1	
